Experiment [1] has as its system U-937. The experiment in a line: Induction of apoptosis in human U937 cells assessed as condensed/fragmented nuclei at 25 ug/ml after 24 hrs using Hoechst 33342 staining by microscopy relative to solvent control. It counts as functional.
The nature of experiment [2]: Cytotoxicity against human U937 cells after 24 hrs by MTT assay. It counts as functional, cell-based. The note with it: U-937, 24 h. On the technique in general: Tetrazolium dyes change colour on reduction, which living cells bring about.
For experiment [3], the system named is U-937. The experiment in a line: Induction of apoptosis in human U937 cells assessed as caspase 3/7 level at 50 ug/ml after 24 hrs by Caspase-Glo 3/7 assay relative to solvent control. In kind it is functional.
Experiment [4] has as its system U-937. As to the kind of experiment: Induction of apoptosis in human U937 cells assessed as condensed/fragmented nuclei at 50 ug/ml after 24 hrs using Hoechst 33342 staining by microscopy relative to solvent control. In kind it is functional.
The test system of experiment [5] is U-937. As to the kind of experiment: Induction of apoptosis in human U937 cells assessed as caspase 3/7 level at 25 ug/ml after 24 hrs by Caspase-Glo 3/7 assay relative to solvent control. In kind it is functional.
Experiment [6] concerns U-937. As to the kind of experiment: Induction of apoptosis in human U937 cells assessed as DNA fragmentation measured as DNA laddering at 25 ug/ml after 24 hrs by agarose gel electophoresis relative to solvent control. In kind it is functional, cell-based.
For experiment [7], the system named is U-937. The experiment in a line: Induction of apoptosis in human U937 cells assessed as DNA fragmentation measured as DNA laddering at 5 ug/ml after 24 hrs by agarose gel electophoresis relative to solvent control. In kind it is functional, cell-based.
The test system of experiment [8] is U-937. As to the kind of experiment: Induction of apoptosis in human U937 cells assessed as condensed/fragmented nuclei at 5 ug/ml after 24 hrs using Hoechst 33342 staining by microscopy relative to solvent control. In kind it is functional.
Experiment [9] has as its system U-937. As to the kind of experiment: Induction of apoptosis in human U937 cells assessed as condensed/fragmented nuclei at 10 ug/ml after 24 hrs using Hoechst 33342 staining by microscopy relative to solvent control. In kind it is functional.
Experiment [10] has as its system U-937. The experiment in a line: Induction of apoptosis in human U937 cells assessed as caspase 3/7 level at 10 ug/ml after 24 hrs by Caspase-Glo 3/7 assay relative to solvent control. It counts as functional.
For experiment [11], the system named is U-937. As to the kind of experiment: Induction of apoptosis in human U937 cells assessed as caspase 3/7 level at 5 ug/ml after 24 hrs by Caspase-Glo 3/7 assay relative to solvent control. In kind it is functional.
Experiment [12] has as its system U-937. The experiment in a line: Induction of apoptosis in human U937 cells assessed as DNA fragmentation measured as DNA laddering at 10 ug/ml after 24 hrs by agarose gel electophoresis relative to solvent control. It counts as functional, cell-based.
In experiment [13] the test system is U-937. As to the kind of experiment: Induction of apoptosis in human U937 cells assessed as caspase 3/7 level at 12 ug/ml after 24 hrs by Caspase-Glo 3/7 assay relative to solvent control. In kind it is functional.
In experiment [14] the test system is U-937. As to the kind of experiment: Induction of apoptosis in human U937 cells assessed as DNA fragmentation measured as DNA laddering at 12 ug/ml after 24 hrs by agarose gel electophoresis relative to solvent control. In kind it is functional, cell-based.
Experiment [15] relates to U-937. As to the kind of experiment: Induction of apoptosis in human U937 cells assessed as condensed/fragmented nuclei at 12 ug/ml after 24 hrs using Hoechst 33342 staining by microscopy relative to solvent control. In kind it is functional.

Each structure is given as a SMILES string. Activity calls are given as the source filed them. The rule behind the calls is not given here.

One may read the IC50 as the concentration that inhibits the measured activity by half. High values mean weaker potency in that assay, low ones greater potency in that assay. Regarding `CC[N+]([O-])(CC)CCC[C@@H](C)[C@H]1CC[C@@]2(C)C3=C(CC[C@]12C)[C@@]1(C)CC[C@H](OC(C)=O)C(C)(C)[C@@H]1CC3`, the Activity in experiment [1] turned out to be 7%; in [3] it was 4.3%; in [4] it was 5%; in [5], 4.4%. Further, in experiment [2], the IC50 is 21.1 µM. In addition, the outcome in [6] was Active.
In turn, `CC(=O)O[C@H]1CC[C@]2(C)C3=C(CC[C@H]2C1(C)C)[C@]1(C)CC[C@H]([C@H](C)CCCN2CCOCC2)[C@@]1(C)CC3` yielded an IC50 in experiment [2] of 148 µM.
For `C[C@H](CCCN1CCCCC1)[C@H]1CC[C@@]2(C)C3=C(CC[C@]12C)[C@@]1(C)CC[C@H](O)C(C)(C)[C@@H]1CC3`, the outcome in [7] was Active. The half-inhibitory concentration (IC50) in experiment [2] was 1.9 µM. Further, the Activity in experiment [8] amounted to 7.4%; in experiment [9] it was 5.5%; in [10], 2.1%; in experiment [11], 2%.
For `C[C@H](CCCNc1ccccc1)[C@H]1CC[C@@]2(C)C3=C(CC[C@]12C)[C@@]1(C)CC[C@H](O)C(C)(C)[C@@H]1CC3`, half-maximal inhibition in [2] (IC50) required 132 µM.
Turning to `COc1cc([C@@H]2c3cc4c(cc3[C@@H](O[C@@H]3O[C@@H]5CO[C@@H](C)O[C@H]5[C@H](O)[C@H]3O)[C@H]3COC(=O)[C@H]23)OCO4)cc(OC)c1O` [ETOPOSIDE], the result in experiment [7] was Active. Also, in experiment [2], the IC50 was 1.5 µM. For the same compound, the Activity in experiment [8] is 23.7%; in experiment [9], 24.8%; in experiment [10], 5.9%; in experiment [11] it was 6.4%.
With `CCN(CC)CCC[C@@H](C)[C@H]1CC[C@@]2(C)C3=C(CC[C@]12C)[C@@]1(C)CC[C@H](O)C(C)(C)[C@@H]1CC3`, the outcome in [7] was Active. Besides, the IC50 in [2] was 3.5 µM. The Activity in experiment [8] worked out at 3.7%; in experiment [9] it was 3%; in [10], 2.4%; in [11] it was 2.3%.
For `CC(=O)O[C@H]1CC[C@]2(C)C3=C(CC[C@H]2C1(C)C)[C@]1(C)CC[C@H]([C@H](C)CCCNc2ccccc2)[C@@]1(C)CC3`, the IC50 in experiment [2] was 367 µM.
The compound `CC(=O)O[C@H]1CC[C@]2(C)C3=C(CC[C@H]2C1(C)C)[C@]1(C)CC[C@H]([C@H](C)CCCN2CCN(CCO)CC2)[C@@]1(C)CC3` showed an IC50 in experiment [2] of 9.3 µM. The outcome in [12] was Active. Moreover, the Activity in experiment [8] came out at 7.3%; in [9], 10.2%; in experiment [10], 7.8%; in [11], 6.6%.
Regarding `CCN(CC)CCC[C@@H](C)[C@H]1CC[C@@]2(C)C3=C(CC[C@]12C)[C@@]1(C)CC[C@H](OC(C)=O)C(C)(C)[C@@H]1CC3`, the Activity in [1] amounted to 6.6%; in experiment [9], 6.9%; in experiment [10], 4.9%; in experiment [5] it was 7.3%. Besides, 16.4 µM corresponded to half-maximal inhibition in [2] (IC50). Further, the result in experiment [12] was Active.
For the compound `CC(=O)O[C@H]1CC[C@]2(C)C3=C(CC[C@H]2C1(C)C)[C@]1(C)CC[C@H]([C@H](C)CCCN2CCCCC2)[C@@]1(C)CC3`, the Activity in experiment [1] was determined as 8.8%; in experiment [3], 3.4%; in experiment [4] it was 10.6%; in experiment [5], 1.9%. In experiment [2], this compound showed an IC50 of 14.9 µM. Also, in experiment [6], the outcome was Active.
`C[C@H](CCCN1CCOCC1)[C@H]1CC[C@@]2(C)C3=C(CC[C@]12C)[C@@]1(C)CC[C@H](O)C(C)(C)[C@@H]1CC3`: it took 128 µM to reach half-maximal inhibition in experiment [2] (IC50).
In the case of `C[C@H](CCCN1CCN(CCO)CC1)[C@H]1CC[C@@]2(C)C3=C(CC[C@]12C)[C@@]1(C)CC[C@H](O)C(C)(C)[C@@H]1CC3`, the IC50 in experiment [2] is 2.7 µM. Further, the Activity in experiment [8] was 7.6%; in [9], 6.6%; in [10] it was 1.3%; in experiment [11], 1.2%.
On to `CC(C)CCC[C@@H](C)[C@H]1CC[C@H]2[C@@H]3C(=O)C=C4C[C@@H](O)CC[C@]4(C)[C@H]3CC[C@]12C` [7-OXOCHOLESTEROL], for which the Activity came out at 2.2% in experiment [13] and 7.3% in experiment [15]. Further, the result in [14] was Active.

The record behind these values is ChEMBL document CHEMBL3400026, “Synthesis of novel 24-amino-25,26,27-trinorlanost-8-enes: cytotoxic and apoptotic potential in U937 cells” (Bioorg Med Chem, 2015).
